As usually defined, the IC50 is the concentration needed to halve the response being measured.

In one assay the target is DNA polymerase beta (Mus musculus, UniProt Q8K409). The assay can be described thus: ChEBML_50773. From the text: Ability to inhibit mouse beta DNA polymerase
The next assay concerns the target Gag-Pol polyprotein (Woolly monkey sarcoma virus, UniProt P03359). As to the kind of experiment: ChEBML_196792. From the text:
Ability to inhibit simian sarcoma virus reverse transcriptase

Chain of Gag-Pol polyprotein (P03359 642-1310 limits assumed): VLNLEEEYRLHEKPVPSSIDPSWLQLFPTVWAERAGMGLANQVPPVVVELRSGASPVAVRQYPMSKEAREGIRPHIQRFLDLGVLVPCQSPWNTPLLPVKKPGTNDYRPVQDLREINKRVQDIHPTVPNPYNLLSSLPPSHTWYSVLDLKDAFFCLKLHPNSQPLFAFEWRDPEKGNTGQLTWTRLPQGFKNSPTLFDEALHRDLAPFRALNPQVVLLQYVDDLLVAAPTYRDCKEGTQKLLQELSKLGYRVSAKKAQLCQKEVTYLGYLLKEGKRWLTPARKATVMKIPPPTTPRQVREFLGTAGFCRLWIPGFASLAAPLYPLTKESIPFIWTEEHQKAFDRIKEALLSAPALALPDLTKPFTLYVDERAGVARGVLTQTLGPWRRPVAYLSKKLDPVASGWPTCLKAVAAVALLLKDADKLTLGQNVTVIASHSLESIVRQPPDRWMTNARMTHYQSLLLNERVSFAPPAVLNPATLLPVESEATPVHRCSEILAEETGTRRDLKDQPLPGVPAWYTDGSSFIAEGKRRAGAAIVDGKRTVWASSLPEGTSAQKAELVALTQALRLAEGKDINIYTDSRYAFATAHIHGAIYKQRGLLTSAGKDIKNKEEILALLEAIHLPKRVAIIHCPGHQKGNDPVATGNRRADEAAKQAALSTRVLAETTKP

Regarding `COC1/C=C/OC2(C)Oc3c(C)c(O)c4c(O)c(c(CN5CCNCC5)cc4c3C2=O)NC(=O)/C(C)=C\C=C\C(C)C(O)C(C)C(O)C(C)C(OC(C)=O)C1C` (stereo not given) [26-hexahydro-1-pyrazinylmethyl-2,15,17,29-tetrahydroxy-11-methoxy-3,7,12,14,16,18,22-heptamethyl-6,23-dioxo-8,30-dioxa-24-azatetracyclo[23.3.1.14,7.05,28]triaconta-1(28),2,4,9,19,21,25(29),26-octaen-13-yl acetate], the IC50 on DNA polymerase beta turned out to be 4200 µM; against Gag-Pol polyprotein it was 1450 µM.
The matching figures for `COC1/C=C/OC2(C)Oc3c(C)c(O)c4c(O)c(ccc4c3C2=O)NC(=O)/C(C)=C\C=C\C(C)C(O)C(C)C(O)C(C)C(OC(C)=O)C1C` (stereo not given) [2,15,17,29-tetrahydroxy-11-methoxy-3,7,12,14,16,18,22-heptamethyl-6,23-dioxo-8,30-dioxa-24-azatetracyclo[23.3.1.14,7.05,28]triaconta-1(28),2,4,9,19,21,25(29),26-octaen-13-yl acetate]: 1100 µM and 370 µM.
`COC1/C=C/OC2(C)Oc3c(C)c(O)c4c(O)c(c(O)cc4c3C2=O)NC(=O)/C(C)=C\C=C\C(C)C(O)C(C)C(O)C(C)C(OC(C)=O)C1C` (stereo not given) [2,15,17,26,29-pentahydroxy-11-methoxy-3,7,12,14,16,18,22-heptamethyl-6,23-dioxo-8,30-dioxa-24-azatetracyclo[23.3.1.14,7.05,28]triaconta-1(28),2,4,9,19,21,25(29),26-octaen-13-yl acetate] returned an IC50 at DNA polymerase beta of 370 µM.
The same measure, in the same setting: for `COC1/C=C/OC2(C)Oc3c(C)c(O)c4c(O)c(c(/C=N/N5CCCC5)cc4c3C2=O)NC(=O)/C(C)=C\C=C\C(C)C(O)C(C)C(O)C(C)C(OC(C)=O)C1C` (stereo not given) [2,15,17,29-tetrahydroxy-11-methoxy-3,7,12,14,16,18,22-heptamethyl-26-Methylene-pyrrolidin-1-yl-amino-6,23-dioxo-8,30-dioxa-24-azatetracyclo[23.3.1.14,7.05,28]triaconta-1(28),2,4,9,19,21,25(29),26-octaen-13-yl acetate] the value was 240 µM; for `COc1cccc(CN2CCN(/N=C/c3cc4c5c6c(C)c(O)c4c(O)c3NC(=O)/C(C)=C\C=C\C(C)C(O)C(C)C(O)C(C)C(OC(C)=O)C(C)C(OC)/C=C/OC(C)(O6)C5=O)CC2)c1` (stereo not given) [2,15,17,29-tetrahydroxy-11-methoxy-3,7,12,14,16,18,22-heptamethyl-26-[4-(3-Methoxy-benzyl)-piperazin-1-yl]-methylene-amino-6,23-dioxo-8,30-dioxa-24-azatetracyclo[23.3.1.14,7.05,28]triaconta-1(28),2,4,9,19,21,25(29),26-octaen-13-yl acetate], 120 µM; for `COC1/C=C/OC2(C)Oc3c(C)c(O)c4c(O)c(c(C=O)cc4c3C2=O)NC(=O)/C(C)=C\C=C\C(C)C(O)C(C)C(O)C(C)C(OC(C)=O)C1C` (stereo not given) [26-formyl-2,15,17,29-tetrahydroxy-11-methoxy-3,7,12,14,16,18,22-heptamethyl-6,23-dioxo-8,30-dioxa-24-azatetracyclo[23.3.1.14,7.05,28]triaconta-1(28),2,4,9,19,21,25(29),26-octaen-13-yl acetate], 104 µM.
On DNA polymerase beta, `CCN(CC)Cc1cc2c3c4c(C)c(O)c2c(O)c1NC(=O)/C(C)=C\C=C\C(C)C(O)C(C)C(O)C(C)C(OC(C)=O)C(C)C(OC)/C=C/OC(C)(O4)C3=O` (stereo not given) [26-diethylaminomethyl-2,15,17,29-tetrahydroxy-11-methoxy-3,7,12,14,16,18,22-heptamethyl-6,23-dioxo-8,30-dioxa-24-azatetracyclo[23.3.1.14,7.05,28]triaconta-1(28),2,4,9,19,21,25(29),26-octaen-13-yl acetate] came in with an IC50 of 1100 µM.
Compound `COC1/C=C/OC2(C)Oc3c(C)c(O)c4c(O)c(c(/C=N/N5CCN(C)CC5)cc4c3C2=O)NC(=O)/C(C)=C\C=C\C(C)C(O)C(C)C(O)C(C)C(OC(C)=O)C1C` (stereo not given) [2,15,17,29-tetrahydroxy-11-methoxy-3,7,12,14,16,18,22-heptamethyl-26-(4-methylhexahydro-1-pyrazinyliminomethyl)-6,23-dioxo-8,30-dioxa-24-azatetracyclo[23.3.1.14,7.05,28]triaconta-1(28),2,4,9,19,21,25(29),26-octaen-13-yl acetate] had an IC50 at DNA polymerase beta of 150 µM.
